The values below come from patent US20040005686A1, “Crystalline structure of human MAPKAP kinase-2” (Pharmacia Corporation, priority 2002, published 2004).

Ends that are not written are not given here.

In one test the test system is MK-2. Particulars: cited from earlier work.
The target of test [1] is T1, Human MAPKAP kinase-2 (45-371) (human, UniProt P49137 45-371).
T1 construct: Expressed in E. coli as a GST fusion; One copy of the complex per asymmetric unit; also called MK-2(45-371); MK-2
Description: X-ray crystallography of MK-2 co-crystallized with AMP-PNP, SC-83598 and MgCl2.
Description: Following this general procedure the co-crystals were grown by sitting drop vapor diffusion. […] This protein solution was mixed in a 1:1 ratio with a reservoir solution containing around 1.6-2.6M ammonium sulfate and 100 mM sodium acetate, the reservoir solution being at a pH of between around 4.2-5.4. Small bipyramidal or prism-shaped crystals appeared in the drops in 1-2 days and grew to as large as 0.4 mm×0.4 mm in about 1 to 3 weeks.
Small bipyramidal or prism-shaped crystals appeared in the drops in 1-2 days and grew to as large as 0.4 mm×0.4 mm over 1-3 weeks.

T1 sequence (P49137 45-371 limits assumed): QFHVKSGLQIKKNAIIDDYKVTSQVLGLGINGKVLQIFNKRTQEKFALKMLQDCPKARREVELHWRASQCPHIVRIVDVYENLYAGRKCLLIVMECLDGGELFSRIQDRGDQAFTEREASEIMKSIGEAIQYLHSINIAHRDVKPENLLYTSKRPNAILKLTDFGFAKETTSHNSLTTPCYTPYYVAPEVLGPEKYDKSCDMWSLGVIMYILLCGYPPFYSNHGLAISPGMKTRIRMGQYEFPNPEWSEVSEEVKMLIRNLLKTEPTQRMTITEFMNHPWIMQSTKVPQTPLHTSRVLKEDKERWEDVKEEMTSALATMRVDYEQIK

For `C[S+]([O-])c1ccc(-c2nc(-c3ccncc3)c(-c3ccc(F)cc3)[nH]2)cc1` (centres unmarked) [SB203580], the “activation of MK-2” value in the test with MK-2 is given as “inhibit activation of MK-2”.

As to KKKALLRQLGVAA (not fully specified) [SC-83598 (13-residue inhibitor peptide)], the binding result in test [1] is “binds”.
